Results reported in patent US20090318396A1, “CORTICOSTEROID LINKED BETA-AGONIST COMPOUNDS FOR USE IN THERAPY” (priority 2008, published 2009).

Columns and labels:
[1] = Stability of steroid C-21 esters, carbonates and carbamates in rat lung homogenate; conditions: for Mean [Parent] (nM) at 2 hrs, 37° C.: parent compound; for Mean % compound remaining at 2 hrs, 37° C.: 900 nM, n=3
Method: Lungs from Fischer 344 rats were obtained fresh by overnight delivery at 4° C. from BioReclamation Inc. (Hicksville, N.Y.). Lungs were weighed and homogenized in a 1:3 w/v ratio with sterile phosphate buffered saline (PBS, 10 mM, pH 7.4) in glass vials on ice. After centrifugation at 3,000×g for 10 min at 4° C. the supernatant was decanted into sterile conical tubes and placed on ice. The total protein content of the supernatant was determined by the bicinchoninic acid (BCA) method (Pierce Biotechnology, Rockford, Ill.), using bovine serum albumin (BSA) as the standard. Lung homogenates were prepared to a final concentration of 1 mg total protein/mL in 10 mM PBS, pH 7.4.
Heat-inactivation was achieved by incubation at 80° C. for 30 min, after which the homogenate was allowed to cool to room temperature, stored overnight at 4° C. The homogenate was used for the assay and standard curve preparations. Before use, each homogenate preparation was equilibrated for 15 min in a 37° C. water bath. […] DMSO (2.7 uL) added to 3 mL of temperature-equilibrated homogenate served as a control. Aliquots (100 uL) of homogenate+compound were added to 400 μL quenching solution consisting of 100% HPLC-grade acetonitrile+500 ng/mL glyburide for the zero time point (n=3 for each time point).
The glyburide served as an internal LC/MS/MS standard. The remainder of each drug+homogenate solution was aliquoted into a 96-well tissue culture plates. After an additional 30 min and 120 min incubation at 37° C., 100 μL aliquots were added to 400 μL quenching solution. Denatured proteins in the quenching solution were separated by centrifugation at 3000×g for 2 min at 4° C., and 160 μL of the supernatants were transferred to new 96-well plate for analysis by LC/MS/MS. Collection plates were covered with plastic film and were kept on ice. For storage, covered plates were and kept stored at −80° C. until further use.
An aliquot of 50 μL of each sample was diluted with 50 μL of water containing internal standard at 4° C. The diluted samples were then centrifuged for 20 minutes at 3000 rpm at 4° C. An aliquot of 20 μL of the solution was injected into the TSQ Ultra Quantum.
LC/MS/MS system. The compounds were separated by HPLC using a HyPurity C18 HPLC column (30×2.1 mm, 5μ) from ThermoHypersil. A Multiplex LX-2 HPLC system (Cohesive Technologies, Franklin, Mass.) with two identical Agilent 1100 series binary pumps (P/N G1312A) were used for elution and separation. Samples were maintained at 4° C. in an HTS Pal autosampler (LEAP Technologies, Carrboro, N.C.) in order to reduce any potential spontaneous hydrolysis of the compounds before injection onto the HPLC. The analytes were eluted using the following mobile phases; Mobile phase A contained 1% acetonitrile in 10 mM ammonium formate aqueous solution with 1% formic acid. Mobile phase B contained 80% acetonitrile in 10 mM ammonium formate with 1% formic acid. The HPLC elution program used to elute the analytes was as follows:
The samples were further analyzed by tandem mass spectrometry using a TSQ Quantum Ultra triple quadrupole mass spectrometer (Thermo Finnigan, San Jose, Calif.) using a selective reaction monitoring (SRM) scan type. The mass spectrometry parameters used were as follows:
Nine-point standard curves for each test compound were prepared and analyzed in heat-inactivated lung homogenate. […] The data expressed in Table 2 represent the mean (n=3) percent remaining compound in both types of homogenate at 2 hours, 37° C.

[2] = Drug levels in plasma, BALF and lung after IT administration in the rat; conditions: for Plasma Conc: analyte after IT administration of Example 83, 1 mg/kg
Method: Compounds of Examples 52 and 83 were formulated for intratracheal (IT) dosing in 10% EtOH, 90% Sterile Water, and dosed in male Sprague-Dawley rats at 3 mg/kg (Example 52) and 1 mg/kg (Example 83). Each dosing group consisted of 3 male, naïve purebred Sprague-Dawley rats. At dosing, the animals weighed ˜0.30 kg. The animals were fasted overnight prior to dose administration and up to 2 hr after dosing. The compounds were administered IT using a Penn Century Microsprayer (Model 1A-1B).
Blood samples were collected at 0.5, 2, and 4 hours post-dose. Each blood sample (0.5-0.6 mL per sample) was collected via the orbital sinus (following anesthesia for BAL procedure) into tubes containing EDTA anti-coagulant into containers surrounded by dry ice at 0.5, 2 and 4 hr (mean, n=6). Blood samples were stored at −20±5° C. until shipped for analysis.
The animals were anesthetized with an intramuscular (IM) injection of a ketamine/xylazine/acepromazine (80/10/2 mg/kg) cocktail at a dose volume of 1.1 mL/kg. A cannula (modified Bard® infant feeding tube) was inserted into the trachea. Warmed sterile saline was injected into the lungs. The lungs were gently massaged by palpation of the chest for approximately 45 seconds. The fluid (BALF) was recovered and placed on ice. The procedure was repeated two more times, and all three BALF samples pooled. The fluid was centrifuged under refrigerated conditions at 350 g for 10 minutes. The supernatant and cell pellet were collected and stored at approximately −70° C. until shipped for analysis.
Immediately following each BAL procedure, the lungs from each animal were removed, blotted dry, weighed, and stored frozen at −70° C. until shipped for analysis.
An LC/MS/MS method was used to measure the concentration of compound in plasma.
Add 3×w/v of 1×PBS buffer (90:10-PBS:ACN) to each lung tissue. Homogenize the sample w/Polytron (PT1200) and take 50 uL of supernatant and inject to LC/MSMS.
An aliquot of 50 μL of each plasma sample was treated with 100 mL of acetonitrile (ACN) containing internal standard. After the protein precipitation, an aliquot of 100 μL of the supernatant was transferred to a clean 96-well plate and mixed with 100 μL of water. An aliquot of 30 μL of the above solution was injected to the TSQ Ultra Quantum LC/MS/MS system.
A HyPurity C18 HPLC column (30×2.1 mm, 5μ) from ThermoHypersil (Part #: 22105-032130) was used. Mobile phase A contained 1% acetonitrile in 10 mM ammonium formate aqueous solution with 1% formic acid. Mobile phase B contained 80% acetonitrile in 10 mM ammonium formate with 1% formic acid. An Agilent 1100 series binary pump (P/N G1312A Bin Pump) was used for elution and separation. HTS Pal autosampler from LEAP Technologies, Carrboro, N.C. was used.
TSQ Quantum Ultra triple quadrupole mass spectrometer from Thermo Finnigan, San Jose, Calif. was used in selective reaction monitoring (SRM) operation mode, Tune file:

[3] = Inactive (heat-inactivated) rat lung homogenate

Question: For `CC(CN(C)C)OC(=O)OCC(=O)[C@@]12O[C@H](C3CCCCC3)O[C@@H]1C[C@H]1[C@@H]3CCC4=CC(=O)C=C[C@]4(C)[C@H]3[C@@H](O)C[C@@]12C` (some centres unmarked) [Example 28], which “Mean [Parent] (nM) at 2 hrs, 37° C.” value ([1]; Active homogenate) is on record?
Answer: 120 nM

Question: And the “Mean % compound remaining at 2 hrs, 37° C.” value (“Mean % compound remaining” below) ([1]; Active rat lung homogenate)?
Answer: 45%

Question: What about the “Mean % compound remaining” value [1, 3] of the same molecule?
Answer: 64%

Question: And the “Mean [Parent] (nM) at 2 hrs, 37° C.” value ([1]; Inactive homogenate)?
Answer: 147 nM

Question: What does the source list for `C[C@]12C=CC(=O)C=C1CC[C@@H]1[C@@H]2[C@@H](O)C[C@@]2(C)[C@H]1C[C@H]1O[C@@H](C3CCCCC3)O[C@]12C(=O)COC(=O)c1cccnc1` [Example 29, Nicotinic acid [[11β,16α]-[[((R)-cyclohexylmethylene)bis(oxy)]-11-hydroxypregna-1,4-diene-3,20-dion-21-yl]]ester]?
Answer: Mean [Parent] (nM) at 2 hrs, 37° C. ([1]; Active homogenate): 2 nM; Mean % compound remaining at 2 hrs, 37° C. ([1]; Active rat lung homogenate): 1%; Mean % compound remaining at 2 hrs, 37° C. [1, 3]: 72%; Mean [Parent] (nM) at 2 hrs, 37° C. ([1]; Inactive homogenate): 130 nM

Question: What does the source list for `CCN(CC)Cc1cccc(C(=O)OCC(=O)[C@@]23O[C@H](C4CCCCC4)O[C@@H]2C[C@H]2[C@@H]4CCC5=CC(=O)C=C[C@]5(C)[C@H]4[C@@H](O)C[C@@]23C)c1` [Example 31, 3-Diethylaminomethylbenzoic acid [[11β,16α]-[[((R)-cyclohexylmethylene)bis(oxy)]-11-hydroxypregna-1,4-diene-3,20-dion-21-yl]]ester]?
Answer: Mean [Parent] (nM) at 2 hrs, 37° C. ([1]; Active homogenate): 127 nM; Mean % compound remaining at 2 hrs, 37° C. ([1]; Active rat lung homogenate): 68%; Mean % compound remaining at 2 hrs, 37° C. [1, 3]: 68%; Mean [Parent] (nM) at 2 hrs, 37° C. ([1]; Inactive homogenate): 127 nM

Question: What does the source list for `CCN(CC)CC(=O)OCC(=O)[C@@]12O[C@H](C3CCCCC3)O[C@@H]1C[C@H]1[C@@H]3CCC4=CC(=O)C=C[C@]4(C)[C@H]3[C@@H](O)C[C@@]12C` [Example 32, 4-Diethylaminoacetic acid [[11β,16α]-[[((R)-cyclohexylmethylene)bis(oxy)]-11-hydroxypregna-1,4-diene-3,20-dion-21-yl]]ester]?
Answer: Mean [Parent] (nM) at 2 hrs, 37° C. ([1]; Active homogenate): 1 nM; Mean % compound remaining at 2 hrs, 37° C. ([1]; Active rat lung homogenate): 1%; Mean % compound remaining at 2 hrs, 37° C. [1, 3]: 61%; Mean [Parent] (nM) at 2 hrs, 37° C. ([1]; Inactive homogenate): 119 nM

Question: For `C[C@]12C=CC(=O)C=C1CC[C@@H]1[C@@H]2[C@@H](O)C[C@@]2(C)[C@H]1C[C@H]1O[C@@H](C3CCCCC3)O[C@]12C(=O)COC(=O)/C=C/c1cccnc1` [Example 33, 3-(Pyridin-3-yl)acrylic acid [[11β,16a]-[[((R)-cyclohexylmethylene)bis(oxy)]-11-hydroxypregna-1,4-diene-3,20-dion-21-yl]]ester], which “Mean [Parent] (nM) at 2 hrs, 37° C.” value ([1]; Active homogenate) is on record?
Answer: 4 nM

Question: What about the “Mean % compound remaining” value ([1]; Active rat lung homogenate) of the same molecule?
Answer: 3%

Question: What about the “Mean % compound remaining” value [1, 3] of the same molecule?
Answer: 78%

Question: What about the “Mean [Parent] (nM) at 2 hrs, 37° C.” value ([1]; Inactive homogenate) of the same molecule?
Answer: 124 nM

Question: For `C[C@]12C=CC(=O)C=C1CC[C@@H]1[C@@H]2[C@@H](O)C[C@@]2(C)[C@H]1C[C@H]1O[C@@H](C3CCCCC3)O[C@]12C(=O)COC(=O)CCc1cccnc1` [Example 34, 3-(Pyridin-3-yl)propionic acid [[11β,16α]-[[((R)-cyclohexylmethylene)bis(oxy)]-11-hydroxypregna-1,4-diene-3,20-dion-21-yl]]ester], which “Mean [Parent] (nM) at 2 hrs, 37° C.” value ([1]; Active homogenate) is on record?
Answer: 1 nM

Question: And the “Mean % compound remaining” value ([1]; Active rat lung homogenate)?
Answer: 0%

Question: What about the “Mean % compound remaining” value [1, 3] of the same molecule?
Answer: 73%

Question: What about the “Mean [Parent] (nM) at 2 hrs, 37° C.” value ([1]; Inactive homogenate) of the same molecule?
Answer: 159 nM

Question: For `CN1CCC[C@H]1C(=O)OCC(=O)[C@@]12O[C@H](C3CCCCC3)O[C@@H]1C[C@H]1[C@@H]3CCC4=CC(=O)C=C[C@]4(C)[C@H]3[C@@H](O)C[C@@]12C` [Example 38, (S) 1-Methylpyrrolidinecarboxylic acid [[11β,16α]-[[((R)-cyclohexylmethylene)bis(oxy)]-11-hydroxypregna-1,4-diene-3,20-dion-21-yl]]ester], which “Mean [Parent] (nM) at 2 hrs, 37° C.” value ([1]; Active homogenate) is on record?
Answer: 1 nM

Question: And the “Mean % compound remaining” value ([1]; Active rat lung homogenate)?
Answer: 1%

Question: And the “Mean % compound remaining” value [1, 3]?
Answer: 40%

Question: And the “Mean [Parent] (nM) at 2 hrs, 37° C.” value ([1]; Inactive homogenate)?
Answer: 71 nM

Question: For `CN(C)CCNC(=O)OCC(=O)[C@@]12O[C@H](C3CCCCC3)O[C@@H]1C[C@H]1[C@@H]3CCC4=CC(=O)C=C[C@]4(C)[C@H]3[C@@H](O)C[C@@]12C` [Example 39, 2-Dimethylaminoethylcarbamic acid [[11β,16α]-[[((R)-cyclohexylmethylene)bis(oxy)]-11-hydroxypregna-1,4-diene-3,20-dion-21-yl]]ester], which “Mean [Parent] (nM) at 2 hrs, 37° C.” value ([1]; Active homogenate) is on record?
Answer: 186 nM

Question: And the “Mean % compound remaining” value ([1]; Active rat lung homogenate)?
Answer: 92%

Question: And the “Mean % compound remaining” value [1, 3]?
Answer: 78%

Question: What about the “Mean [Parent] (nM) at 2 hrs, 37° C.” value ([1]; Inactive homogenate) of the same molecule?
Answer: 162 nM

Question: For `CN(C)CCN(C)C(=O)OCC(=O)[C@@]12O[C@H](C3CCCCC3)O[C@@H]1C[C@H]1[C@@H]3CCC4=CC(=O)C=C[C@]4(C)[C@H]3[C@@H](O)C[C@@]12C` [Example 40, 2-Dimethylaminoethyl(methyl)carbamic acid [[11β,16α]-[[((R) -cyclohexylmethylene)bis(oxy)]-11-hydroxypregna-1,4-diene-3,20-dion-21-yl]]ester], which “Mean [Parent] (nM) at 2 hrs, 37° C.” value ([1]; Active homogenate) is on record?
Answer: 222 nM

Question: What about the “Mean % compound remaining” value ([1]; Active rat lung homogenate) of the same molecule?
Answer: 83%

Question: And the “Mean % compound remaining” value [1, 3]?
Answer: 78%

Question: And the “Mean [Parent] (nM) at 2 hrs, 37° C.” value ([1]; Inactive homogenate)?
Answer: 167 nM

Question: Which “Mean [Parent] (nM) at 2 hrs, 37° C.” value ([1]; Active homogenate) does the source give for `CN1CCN(C(=O)OCC(=O)[C@@]23O[C@H](C4CCCCC4)O[C@@H]2C[C@H]2[C@@H]4CCC5=CC(=O)C=C[C@]5(C)[C@H]4[C@@H](O)C[C@@]23C)CC1` [Example 41, 4-Methylpiperazinecarboxylic acid [[11β,16α]-[[((R)-cyclohexylmethylene)bis(oxy)]-11-hydroxypregna-1,4-diene-3,20-dion-21-yl]]ester] here?
Answer: 170 nM

Question: What about the “Mean % compound remaining” value ([1]; Active rat lung homogenate) of the same molecule?
Answer: 68%

Question: And the “Mean % compound remaining” value [1, 3]?
Answer: 78%

Question: What about the “Mean [Parent] (nM) at 2 hrs, 37° C.” value ([1]; Inactive homogenate) of the same molecule?
Answer: 172 nM

Question: Which “Mean [Parent] (nM) at 2 hrs, 37° C.” value ([1]; Active homogenate) does the source give for `CC(C)[C@@H](N)C(=O)OCC(=O)[C@@]12O[C@H](C3CCCCC3)O[C@@H]1C[C@H]1[C@@H]3CCC4=CC(=O)C=C[C@]4(C)[C@H]3[C@@H](O)C[C@@]12C` [Example 50, Valine [[11β,16α]-[16,17-((R)-cyclohexylmethylene)bis(oxy)]-11-hydroxypregna-1,4-diene-3,20-dion-21-yl]ester] here?
Answer: 219 nM

Question: And the “Mean % compound remaining” value ([1]; Active rat lung homogenate)?
Answer: 45%

Question: And the “Mean % compound remaining” value [1, 3]?
Answer: 25%

Question: And the “Mean [Parent] (nM) at 2 hrs, 37° C.” value ([1]; Inactive homogenate)?
Answer: 50 nM

Question: Which results are given for `CC(C)[C@@H](NC(=O)c1cccnc1)C(=O)OCC(=O)[C@@]12O[C@H](C3CCCCC3)O[C@@H]1C[C@H]1[C@@H]3CCC4=CC(=O)C=C[C@]4(C)[C@H]3[C@@H](O)C[C@@]12C` [Example 51, N-(Pyridin-3-carbonyl)valine [[11β,16α]-[16,17-((R)-cyclohexylmethylene)bis(oxy)]-11-hydroxypregna-1,4-diene-3,20-dion-21-yl]ester]?
Answer: Mean [Parent] (nM) at 2 hrs, 37° C. ([1]; Active homogenate): 176 nM; Mean % compound remaining at 2 hrs, 37° C. ([1]; Active rat lung homogenate): 86%; Mean % compound remaining at 2 hrs, 37° C. [1, 3]: 85%; Mean [Parent] (nM) at 2 hrs, 37° C. ([1]; Inactive homogenate): 169 nM

Question: For `CN(C)CC(=O)OCC(=O)[C@@]12O[C@H](C3CCCCC3)O[C@@H]1C[C@H]1[C@@H]3CCC4=CC(=O)C=C[C@]4(C)[C@H]3[C@@H](O)C[C@@]12C` [Example 75, N,N-Dimethylglycine [[11β,16α]-[16,17-((R)-cyclohexylmethlylene)bis(oxy)]-11-hydroxypregna-1,4-diene-3,20-dion-21-yl]ester], which “Mean [Parent] (nM) at 2 hrs, 37° C.” value ([1]; Active homogenate) is on record?
Answer: 1 nM

Question: What about the “Mean % compound remaining” value ([1]; Active rat lung homogenate) of the same molecule?
Answer: 1%

Question: And the “Mean % compound remaining” value [1, 3]?
Answer: 55%

Question: What about the “Mean [Parent] (nM) at 2 hrs, 37° C.” value ([1]; Inactive homogenate) of the same molecule?
Answer: 101 nM

Question: What does the source list for `C[C@]12C=CC(=O)C=C1CC[C@@H]1[C@@H]2[C@@H](O)C[C@@]2(C)[C@H]1C[C@H]1O[C@@H](C3CCCCC3)O[C@]12C(=O)COC(=O)Cc1cccnc1` [Example 76, 3-Pyridineacetic acid [[11β,16α]-[16,17-((R)-cyclohexylmethylene)bis(oxy)]-11-hydroxypregna-1,4-diene-3,20-dion-21-yl]ester]?
Answer: Mean [Parent] (nM) at 2 hrs, 37° C. ([1]; Active homogenate): 4 nM; Mean % compound remaining at 2 hrs, 37° C. ([1]; Active rat lung homogenate): 2%; Mean % compound remaining at 2 hrs, 37° C. [1, 3]: 83%; Mean [Parent] (nM) at 2 hrs, 37° C. ([1]; Inactive homogenate): 142 nM

Question: Which “Mean [Parent] (nM) at 2 hrs, 37° C.” value ([1]; Active homogenate) does the source give for `CC(C)[C@@H](C(=O)OCC(=O)[C@@]12O[C@H](C3CCCCC3)O[C@@H]1C[C@H]1[C@@H]3CCC4=CC(=O)C=C[C@]4(C)[C@H]3[C@@H](O)C[C@@]12C)N(C)C` [Example 79, N,N-dimethylvaline [[11β,16α]-[16,17-((R)-cyclohexylmethylene)bis(oxy)]-11-hydroxypregna-1,4-diene-3,20-dion-21-yl]ester] here?
Answer: 149 nM

Question: And the “Mean % compound remaining” value ([1]; Active rat lung homogenate)?
Answer: 85%

Question: What about the “Mean % compound remaining” value [1, 3] of the same molecule?
Answer: 61%

Question: What about the “Mean [Parent] (nM) at 2 hrs, 37° C.” value ([1]; Inactive homogenate) of the same molecule?
Answer: 88 nM

Question: Which “Metabolism in the lung following IT administration” value ([2]; IT) does the source give for `CC[N+](CC)(CC(=O)OCC(=O)[C@@]12O[C@H](C3CCCCC3)O[C@@H]1C[C@H]1[C@@H]3CCC4=CC(=O)C=C[C@]4(C)[C@H]3[C@@H](O)C[C@@]12C)Cc1cc([C@@H](O)CNCCCCCCOCCCCc2ccccc2)ccc1OP(=O)(O)O.[Cl-]` [Example 83, [5-[1-(R)-hydroxy-2-[6-(4-phenylbutoxy)hexylamino]ethyl]-2-phosphonooxybenzyl]-(diethyl)-[[11β,16α]-[16,17-((R-cyclohexylmethylene)bis(oxy)]-11-hydroxypregna-1,4-diene-3,20-dion-21-oxy]-carbonylmethyl]ammonium chloride] here?
Answer: metabolized to Salmeterol and Desisobutyryl Ciclesonide in the lung

Question: Which results are given for `C[C@]12C=CC(=O)C=C1CC[C@@H]1[C@@H]2[C@@H](O)C[C@@]2(C)[C@H]1C[C@H]1O[C@@H](C3CCCCC3)O[C@]12C(=O)CO` [des-ciclesonide, desisobutyryl ciclesonide, reference compound]?
Answer: Mean [Parent] (nM) at 2 hrs, 37° C. ([1]; Active homogenate): 119 nM; Mean % compound remaining at 2 hrs, 37° C. ([1]; Active rat lung homogenate): 98%; Mean % compound remaining at 2 hrs, 37° C. [1, 3]: 71%; Mean [Parent] (nM) at 2 hrs, 37° C. ([1]; Inactive homogenate): 84 nM; Plasma Conc ([2]; 0.5 hr): BLQ; Plasma Conc ([2]; 2.0 hr): BLQ; Plasma Conc ([2]; 4.0 hr): BLQ
